From PubChem BioAssay AID1053150 (Broad Institute, 2014)

Test system: HepG2 13C-glycerol triglyceride synthesis, LC-MS, 24 h
Test: inhibition of triglyceride synthesis rate, late-stage follow-up, mechanism study for Trib1 inducer project, cell-based, HepG2, LC-MS, 13C-glycerol labeling, cherry-pick (AID 1053150)
Settings: active compounds read high; dose or concentration not given here

## CN1C(=O)c2cc(NC(=O)c3ccc(C(F)(F)F)cc3)ccc2OC[C@@H]2O[C@H](CC(=O)NC3Cc4ccccc4C3)CC[C@@H]21
  TAG formation rate inhibition: 2%
